Experiments:
GBO (U251) = assay: Live and dead cell staining of GBO; format: cell-based; settings: GBO in bioreactor, live and dead cells stained
Source text: Live and Dead Cell Analysis: Cells were stained with Live and Dead Cell Kit according to manufacturer's protocol (Abcam, ab115347). Sample images were acquired and analyzed using Nikon C2 Laser Scanning Confocal Microscope.

[1] = tested on: SOX2 and CD44 expression in GBO; assay: IHC of GSC markers SOX2 and CD44 in GBO, fluorescence intensity by CTCF; format: cell-based; settings: GBO with vs without ROCKi
Procedure: To further examine whether ROCKi maintained GSC stemness, the expression of GSC markers, SOX2 and CD44, were analyzed (FIG. 6B).
where A is the two-dimensional projected area, and p is perimeter. Images were acquired with 12-bit depth, and the raw files were analyzed using NIS-Elements Viewer (Nikon) and ImageJ (NIH). Fluorescence intensity was calculated by the corrected total cell fluorescence (CTCF).
Immunohistochemistry (IHC): GBOs were fixed using 4% paraformaldehyde (Alfa Acsar, J61899AK) overnight and dehydrated using ethanol followed by xylene. Dehydrated GBOs were embedded in paraffin. Paraffin-embedded GBOs were sectioned to 5 to 10 μm thickness. Deparaffinization was done by xylene followed by ethanol. Sectioned GBOs were rehydrated with water. 10 mM sodium citrate buffer with […] was formulated for antigen retrieval and adjusted to pH 6.0. Antigen retrieval was performed at 95° C. for ten minutes. Sectioned GBOs were stained with primary antibodies: CD133, SOX2, CD44, NOTCH1, DLL1, HIF-1α, CD31, CD34, CD144, CD146, α-SMA, NG2, GFAP, Map2, S100B, VEGFR, ZO1, and POU3f2, followed by secondary staining. Cell nuclei were counter stained by Hoechst 33342 (Invitrogen, H1399). Stained GBOs were mounted using ProLong Glass Antifade Mountant with NucBlue (Invitrogen, P36981) and imaged by Nikon C2 Laser Scanning Confocal Microscope.

U251 = U251 inoculated as single cells, BR2 bioreactor, 60 and 120 rpm, 5 days of culture, with vs without ROCKi
Procedure: Next, the effects of Rho-associated protein kinase inhibitor (ROCKi) Y-27632 on different bioreactor culture conditions were tested. […] To verify the effects, U251 was inoculated as single cells with or without ROCKi. […] To test whether low cell proliferation is a result of apoptosis, live and dead cells were stained.

C[C@@H](N)[C@H]1CC[C@H](C(=O)Nc2ccncc2)CC1 [ROCKi, Y-27632]
apoptosis (GBO (U251)): did not induce apoptosis
expression levels of GSC markers SOX2 and CD44 [1]: not significantly different
cell proliferation (U251): inhibited cell proliferation
